Test results published in patent publication US20240336638A1, “IMIDAZOLE COMPOUND, AND INTERMEDIATE AND APPLICATION THEREOF” (priority 2021, published 2024).

Tested on: AA-induced platelet aggregation
Experiment: Inhibitory effect on AA-induced platelet aggregation in rabbits in vitro
Format: cell-based, rabbit
Details: 1*10^−4 M; text conclusion (2)
Procedure: Several experimental groups were established, including a blank control group, an AA model control group, and various test compounds. Each test compound had three concentration groups: 10^−3 M, 10^−4 M, and 10^−5 M.
Rabbits were anesthetized with a 20% urethane solution (5 mL/kg body weight) through intraperitoneal injection. After being fixed in a supine position, the skin of the neck was cut about 6 cm, bluntly separated with a hemostat, and the trachea was exposed after the common carotid artery was separated. The distal end of the common carotid artery was ligated with a fine thread, and the proximal end was clamped with an arterial clamp for vascular intubation. After the intubation was fixed, the artery clamp was opened, and the blood was placed into a blood collection tube containing 3.8% trisodium citrate so that the blood was mixed well with the 3.8% trisodium citrate in a volume ratio of 9:1. […]
First, 300 μL of PPP was added to the test cup and put into the test wells, and calibrated by pressing the “PPP” key. […] The maximum aggregation rate within 4 minutes was measured. […]
The platelet aggregation inhibition rate was calculated with the following formula: […]
All data were expressed as mean standard deviation (mean b SD). […] Intergroup data were analyzed using one-way ANOVA, with P<0.05 considered as statistically significant and P<0.01 considered as highly significant.

Row | Compound | significant inhibition of AA-induced platelet aggregation
1 | O=C(O)C1CN(c2ccc(Cn3ccnc3)nc2)C1 [Compound 56, 1-(6-((1H-Imidazol-1-yl)methyl)pyridin-3-yl)azetidine-3-carboxylic acid] | can significantly inhibit
2 | O=C(O)/C=C/c1ccc(Cn2cnc(Cl)c2)cn1 [Compound 59, (E)-3-(5-((4-Chloro-1H-imidazol-1-yl)methyl)pyridin-2-yl)acrylic acid] | can significantly inhibit
